Measured values from patent EP0066934A1, “Nitrofurantoin salts, their preparation and their use” ("PHARLYSE", Société Anonyme, priority 1981, dated 1982).

Columns and labels:
Solubility in water = assay type: physicochemical
From the text: La nitrofurantoïne ou N-(5-nitro-2-fur furylidène)-1-aminohydantoïne est un médicament, bien connu, utilisé notamment comme agent antiseptique des voies urinaires. […] Afin de pallier à cet inconvénient, différentes formes cristallines ont été développées avec peu de succès. Des sels de métaux alcalins de nitrofurantoine ont également été réalisés mais ceux-ci, bien que solubles, présentent l'inconvénient d'apporter avec eux, des ions alcalins qui sont souvent contre- indiqués, notamment lors des traitements au long cours chez les sujets soumis à un régime désodé.

[1] = 10% solution in water
Experimental: On refroidit à O°C une solution de 11,68 g de lysine base dans 190 ml d'eau. A cette solution limpide, on ajoute par petites portions et sous agitation 10,47 g de nitrofurantoïne. Quelques minutes après la fin de l'addition, la solution est filtrée, congelée et lyophilisée.

in vivo = conditions: po, dose létale pour 50% des animaux
From the text: La toxicité de la nitrofurantoïne est connue pour donner des résultats variables suivant les caractéristiques du produit utilisé, notamment la taille des cristaux.

[2] = aqueous solution; cited from earlier work
[3] = water, 25°C; cited from earlier work

O=C1CN(N=Cc2ccc([N+](=O)[O-])o2)C(=O)N1 [Exemple 1]
solubility (Solubility in water; 20°C, read-out: solubilité dans l'eau à 20°C): > 300 mg/mL
solubilité dans l'eau (result in words) (Solubility in water; qualitative): instantanément soluble dans l'eau
pH d'une solution à 10% dans l'eau [1]: 8,9 - 9,5

O=C1CN(N=Cc2ccc([N+](=O)[O-])o2)C(=O)N1 [Exemple 2]
LD50 (in vivo; mouse): 960 mg/kg
LD50 (in vivo; mouse, en nitrofurantoïne pure): 530 mg/kg
LD50 (in vivo; rat): 1910 mg/kg
LD50 (in vivo; rat, en nitrofurantoine pure): 1050 mg/kg

O=C1CN(/N=C/c2ccc([N+](=O)[O-])o2)C(=O)N1 [nitrofurantoïne, N-(5-nitro-2-furfurylidène)-1-aminohydantoïne]
pKa en solution aqueuse [2]: ~7,2
soluble dans l'eau [3]: 19 mg/100 ml
